Measured values published in patent publication US10035991B2, “Non-transgenic herbicide resistant plants” (priority 1999, dated 2018).

How the values were obtained:
[1] = target: wild-type EPSPS from E. coli (Escherichia coli, UniProt P0A6D3); details: read-out: apparent Km for PEP; cited from earlier work
[2] = test system: SA4247 Salmonella typhi cells expressing mutant Arabidopsis thaliana EPSPS; experiment: Glyphosate resistance assay (growth by optical density at 600 nm); format: cell-based; details: 17 mM or 0 mM glyphosate, liquid M9 medium, OD 600 nm every hour for seven hours, compared to wild-type cells (FIG. 6)
Method: Electrocompetent cells of SA4247, a LacZ—Salmonella typhi strain, were prepared according to well known procedures (see Current Protocols in Molecular Biology, (Wiley and Sons, Inc.)). 30 μl of SA4247 competent cells were electroporated with 20 ng of each plasmid DNA encoding Arabidopsis wild-type and mutant EPSPS proteins, Bacillus wild-type EPSPS, along with a mock transfection as a control. The settings for electroporation were 25 μF, 2.5 KV and 200 ohms. After electroporation, the cells were transferred into 15 mls culture tube and supplemented with 970 μl of SOC medium. The cultures were incubated for 1½ hours at 37° C. at 225 rpm. 501 of each culture were plated onto LB plates containing 17 μg/ml chloramphenicol (in duplicates) and incubated overnight at 37° C. On the following day, 5 colonies of each plate were picked and transferred onto M9 plates and incubated overnight at 37° C.
Colonies from the overnight incubation on solid M9 were inoculated into 4 ml of liquid M9 medium and grown overnight at 37° C. On the following day, 25 ml of liquid M9 medium containing chloramphenicol, IPTG and 17 mM or 0 mM Glyphosate (Aldrich, 33775-7) were inoculated with 1-2 mls of each overnight culture (in duplicates), the starting OD (at 600 nm) was measured and all the cultures were normalized to start at the same OD. An OD measurement was taken every hour for seven hours. […]

wild-type EPSPS from E. coli, sequence (P0A6D3 whole entry): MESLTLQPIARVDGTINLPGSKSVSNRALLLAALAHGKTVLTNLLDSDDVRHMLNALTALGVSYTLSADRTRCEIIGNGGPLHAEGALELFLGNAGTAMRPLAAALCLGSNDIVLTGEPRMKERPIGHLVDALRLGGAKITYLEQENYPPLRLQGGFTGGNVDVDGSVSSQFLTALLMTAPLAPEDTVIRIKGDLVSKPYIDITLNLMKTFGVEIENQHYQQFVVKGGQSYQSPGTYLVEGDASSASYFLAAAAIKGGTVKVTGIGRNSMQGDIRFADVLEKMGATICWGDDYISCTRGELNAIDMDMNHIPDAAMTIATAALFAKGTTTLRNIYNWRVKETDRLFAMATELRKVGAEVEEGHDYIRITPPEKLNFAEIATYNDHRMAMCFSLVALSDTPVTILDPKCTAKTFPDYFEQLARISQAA

SMILES | Km [1] [µM] | growth rate of cells containing a mutation in the EPSPS gene [2]
C=C(OP(=O)(O)O)C(=O)O [PEP, phosphoenolpyruvic acid] | 10 | 
O=C(O)CNCP(=O)(O)O [glyphosate, N-phosphonomethylglycine] |  | substantially similar growth rate in the absence or presence of glyphosate
